From US12350283B2, “Methods and compositions for treating motor neuron diseases” (UNIVERSITAT DE VALENCIA-ESTUDI GENERAL, priority 2019, dated 2025)

Columns and labels:
SOD1-G93A mice [1] = experiment: Rotarod test in SOD1 mice; assay type: in vivo, mouse; conditions: for Rotarod test (maximum period on rotating axle): SOD1 mice, limit 1200 seconds, mean
Experimental: (§1) EH301 [Nicotinamide riboside (NR) and pterostilbene (PT)] was administered orally: 185 mg of nicotinamide riboside and 30 mg of pterostilbene/Kg×day (Estrela J M, De La Rubia J E, Dellinger R W. Treating and preventing motor neuron disease using nicotinamide riboside. PCT/US 18/32932, 2018).
(§2) Dexamethasone (DXM) was administered i.p. following sequential 4 weeks-cycle along the experimental time: 1 mg/Kg×day (1st week), 0.5 mg/Kg×day (2nd week), 0.25 mg/Kg×day (3rd week), 0.0 mg/Kg×day ([…]). The dose of 1 mg/Kg was selected based on Kurkowska-Jastrzebska I, Litwin T, Joniec I, Ciesielska A, Przybyłkowski A, Członkowski A, Członkowska A. Dexamethasone protects against dopaminergic neurons damage in a mouse model of Parkinson's disease. Int Immunopharmacol. 2004 October; 4(10-11):1307-18. The cyclic dose regime was designed to optimize the therapeutic benefit causing minimal possible side effects.
(§3) Ibudilast (IB) was administered orally: 12 mg/Kg×day (Wang H, Mei Zl, Zhong K L, Hu M, Long Y, Miao M X, Li N, Yan T H, Hong H. Pretreatment with antiasthmatic drug ibudilast ameliorates Aβ 1-42-induced memory impairment and neurotoxicity in mice. Pharmacol Biochem Behav. 2014 September; 124:373-9).
(§4) Daily doses of NR, DXM and IB were administered together dissolved in 75 uL of physiological saline. PT was present in the chow of laboratory animals. The PT dose was adjusted based on the animal weight and the amount of food ingested per day.
Functions of the test include evaluating balance, grip strength and motor coordination of the subjects; especially in testing the effect of experimental drugs. For this test (Rota Rod, Harvard Apparatus, Holliston, MA) each animal was given three trials and the maximum period (seconds) that it could remain on a rotating axle (3.5 cm diameter; speed of rotation: 15 rpm) without falling was measured. Each mouse was given up to three attempts for an arbitrary limit of 1200 seconds and the longest period was recorded. Changes over time in the different groups were monitored weekly.
(§5) • Data are presented as mean values f SD for the number of different experiments. • Statistical analyses were performed using Student's t-test. • P<0.05 and **P<0.01 comparing all SOD1 groups versus WT (wild type). • ^+P<0.05 and ^++P<0.01 comparing all SOD1 groups treated with EH301, DXM, IB or their combinations versus SOD1 untreated controls. • ^aP<0.05 and ^aaP<0.01 comparing SOD1+EH301+DXM or SOD1+EH301+IB groups versus SOD1+EH301. • ^bP<0.05 and ^bbP<0.01 comparing SOD1+EH301+DXM or SOD1+EH301+IB groups versus SOD1+DXM • ^cP<0.05 and ^ccP<0.01 comparing SOD1+EH301+DXM or SOD1+EH301+IB groups versus SOD1+IB

SOD1-G93A mice [2] = experiment: Survival of SOD1 G93A mice (Kaplan-Meier); assay type: in vivo, mouse; conditions: for Survival time (surviving mice per group): SOD1 mice
Excerpt: Mice hemizygous for SOD1-G93A (also called G93A-SOD1) transgene are viable and fertile, with transgenic expression of a G93A mutant form of human SOD1. This founder line (often referred to as G1H) is reported to have a high transgene copy number. […] Motor neuron degeneration has been associated with function and/or degeneration of astrocytes, the major glial cell type of the nervous system. Transgenic mice have an abbreviated life span: 50% survive at 157.1+/−9.3 days (in contrast to the mixed B6SJL background where 50% survival is observed at 128.9+/−9.1 days). Female hemizygotes are poor breeders, and rarely produce more than one litter before the onset of disease. […] The pattern of gene expression in SOD1G93A activated microglia represents a unique ALS-specific signature. These SOD1-G93A (also called G93A-SOD1) transgenic mice us thus useful in studying neuromuscular disorders, including Amyotrophic Lateral Sclerosis.
The SOD1-G93A transgene was designed with a mutant human SOD1 gene (harboring a single amino acid substitution of glycine to alanine at codon 93) driven by its endogenous human SOD1 promoter. This transgene was injected into fertilized B6SJLF1 mouse eggs and founder animals were obtained. Transgenic mice on a mixed B6SJL genetic background were sent to The Jackson Laboratory (as Stock No. 002726). Upon arrival, some mice were backcrossed to C57BL/6J for at least 10 generations to generate this congenic strain (Stock No. 004435). The backcross was completed in July 2002.
as §1, §2, §3, §4, §5

SOD1-G93A mice [3] = experiment: Neurological score (scale of Weydt et al.) in SOD1 mice; assay type: in vivo, mouse; conditions: scale 0-5
Experimental: as §1, §2, §3, §4
This neurological score is based on the scale of Weydt et al. (Weydt, P., Hong, S. Y., Kliot, M., Moller, T., 2003. Assessing disease onset and progression in the SOD1 mouse model of ALS. NeuroReport 14, 1051-1054). […] When the animals reach a score of “4”, the access to food and water will be facilitated by placing food pellets on the cage floor to all transgenic mice. Reaching a score of “5”, the animals will be euthanized for ethical reasons. Onset is defined as the earliest time when the mice show symptoms (score <4). Changes over time in the different groups were monitored weekly.
as §5

[4] = after oral administration; cited from earlier work
FUS-R521C mice = experiment: Survival of FUS-R521C mice; assay type: in vivo, mouse
Experimental: FUS-R521C mice (ALS model; transgene injected into B6SJL oocytes. Maintained on C57BL/6, therefore subsequent generations have a higher percentage of C57BL/6) were selected for methods examining the effects of the addition of acetylcysteine.
Acetylcysteine (NAC) was administered intraperitoneally (IP): 100 mg/kg per day, beginning on week 30, in experiments examining the effect of the addition of NAC.

[5] = SOD1-G93A mice, versus control untreated

What does the source list for `C[C@@H]1C[C@H]2[C@@H]3CCC4=CC(=O)C=C[C@]4(C)[C@@]3(F)[C@@H](O)C[C@]2(C)[C@@]1(O)C(=O)CO` [DXM, Dexamethasone]?
Rotarod test (maximum period on rotating axle) (SOD1-G93A mice [1]; week 10, 15 rpm): 1200 s; Rotarod test (maximum period on rotating axle) (SOD1-G93A mice [1]; week 11, 15 rpm): 1200 s; Rotarod test (maximum period on rotating axle) (SOD1-G93A mice [1]; week 12, 15 rpm): 1200 s; Rotarod test (maximum period on rotating axle) (SOD1-G93A mice [1]; week 13, 15 rpm): 1200 s; Rotarod test (maximum period on rotating axle) (SOD1-G93A mice [1]; week 14, 15 rpm): 1200 s; Rotarod test (maximum period on rotating axle) (SOD1-G93A mice [1]; week 15, 15 rpm): 1130 s; Rotarod test (maximum period on rotating axle) (SOD1-G93A mice [1]; week 16, 15 rpm): 1045 s; Rotarod test (maximum period on rotating axle) (SOD1-G93A mice [1]; week 17, 15 rpm): 820 s; Rotarod test (maximum period on rotating axle) (SOD1-G93A mice [1]; week 18, 15 rpm): 336 s; Rotarod test (maximum period on rotating axle) (SOD1-G93A mice [1]; week 19, 15 rpm): 225 s; Rotarod test (maximum period on rotating axle) (SOD1-G93A mice [1]; week 20, 15 rpm): 161 s; Rotarod test (maximum period on rotating axle) (SOD1-G93A mice [1]; week 21, 15 rpm): 52 s; Rotarod test (maximum period on rotating axle) (SOD1-G93A mice [1]; week 22, 15 rpm): 0 s; Survival time (surviving mice per group) (SOD1-G93A mice [2]; week 10): 10; Survival time (surviving mice per group) (SOD1-G93A mice [2]; week 11): 10; Survival time (surviving mice per group) (SOD1-G93A mice [2]; week 12): 9; Survival time (surviving mice per group) (SOD1-G93A mice [2]; week 13): 9; Survival time (surviving mice per group) (SOD1-G93A mice [2]; week 14): 9; Survival time (surviving mice per group) (SOD1-G93A mice [2]; week 15): 9; Survival time (surviving mice per group) (SOD1-G93A mice [2]; week 16): 9; Survival time (surviving mice per group) (SOD1-G93A mice [2]; week 17): 9; Survival time (surviving mice per group) (SOD1-G93A mice [2]; week 18): 9; Survival time (surviving mice per group) (SOD1-G93A mice [2]; week 19): 9; Survival time (surviving mice per group) (SOD1-G93A mice [2]; week 20): 7; Survival time (surviving mice per group) (SOD1-G93A mice [2]; week 21): 4; Survival time (surviving mice per group) (SOD1-G93A mice [2]; week 22): 1; Survival time (surviving mice per group) (SOD1-G93A mice [2]; week 23): 0; Neurological score (SOD1-G93A mice [3]; week 10, mean): 0; Neurological score (SOD1-G93A mice [3]; week 11, mean): 0; Neurological score (SOD1-G93A mice [3]; week 12, mean): 0; Neurological score (SOD1-G93A mice [3]; week 13, mean): 0; Neurological score (SOD1-G93A mice [3]; week 14, mean): 0.50; Neurological score (SOD1-G93A mice [3]; week 15, mean): 0.70; Neurological score (SOD1-G93A mice [3]; week 16, mean): 1; Neurological score (SOD1-G93A mice [3]; week 17, mean): 1; Neurological score (SOD1-G93A mice [3]; week 18, mean): 1.60; Neurological score (SOD1-G93A mice [3]; week 19, mean): 2.50; Neurological score (SOD1-G93A mice [3]; week 20, mean): 3; Neurological score (SOD1-G93A mice [3]; week 21, mean): 3.40; Neurological score (SOD1-G93A mice [3]; week 22, mean): 4

With `CC(=O)N[C@@H](CS)C(=O)O` [NAC, N-acetylcysteine] as the compound, how does the half-life [4] read?
Its half-life is “about 6 hours”.

What about the “time to max. plasma level” value [4] of the same compound?
Its value is 2 to 3 h.

What about the survival (FUS-R521C mice; FIG. 3C) of the same compound?
The survival was “about 32 days”.

Which results are given for `CC(C)C(=O)c1c(C(C)C)nn2ccccc12` [IBU, 2-methyl-1-(2-(1-methylethyl)pyrazolo(1,5-a)pyridin-3-yl)1-propanone]?
motor coordination / motor-neuron dependent functions (in words) (SOD1-G93A mice [1]; [5]): some improvement; Rotarod test (maximum period on rotating axle) (SOD1-G93A mice [1]; week 10, 15 rpm): 1200 s; Rotarod test (maximum period on rotating axle) (SOD1-G93A mice [1]; week 11, 15 rpm): 1200 s; Rotarod test (maximum period on rotating axle) (SOD1-G93A mice [1]; week 12, 15 rpm): 1200 s; Rotarod test (maximum period on rotating axle) (SOD1-G93A mice [1]; week 13, 15 rpm): 1200 s; Rotarod test (maximum period on rotating axle) (SOD1-G93A mice [1]; week 14, 15 rpm): 1200 s; Rotarod test (maximum period on rotating axle) (SOD1-G93A mice [1]; week 15, 15 rpm): 1200 s; Rotarod test (maximum period on rotating axle) (SOD1-G93A mice [1]; week 16, 15 rpm): 1200 s; Rotarod test (maximum period on rotating axle) (SOD1-G93A mice [1]; week 17, 15 rpm): 926 s; Rotarod test (maximum period on rotating axle) (SOD1-G93A mice [1]; week 18, 15 rpm): 544 s; Rotarod test (maximum period on rotating axle) (SOD1-G93A mice [1]; week 19, 15 rpm): 197 s; Rotarod test (maximum period on rotating axle) (SOD1-G93A mice [1]; week 20, 15 rpm): 102 s; Rotarod test (maximum period on rotating axle) (SOD1-G93A mice [1]; week 21, 15 rpm): 30 s; Rotarod test (maximum period on rotating axle) (SOD1-G93A mice [1]; week 22, 15 rpm): 0 s; survival (FUS-R521C mice; FIGS. 3A-3C, end of study 45 weeks): about 30 weeks; mean survival (SOD1-G93A mice [2]; SOD1-G93A mice treated from day 50): 137 days; survival (in words) (SOD1-G93A mice [2]; [5]): some improvement; Survival time (surviving mice per group) (SOD1-G93A mice [2]; week 10): 10; Survival time (surviving mice per group) (SOD1-G93A mice [2]; week 11): 10; Survival time (surviving mice per group) (SOD1-G93A mice [2]; week 12): 10; Survival time (surviving mice per group) (SOD1-G93A mice [2]; week 13): 10; Survival time (surviving mice per group) (SOD1-G93A mice [2]; week 14): 10; Survival time (surviving mice per group) (SOD1-G93A mice [2]; week 15): 10; Survival time (surviving mice per group) (SOD1-G93A mice [2]; week 16): 10; Survival time (surviving mice per group) (SOD1-G93A mice [2]; week 17): 10; Survival time (surviving mice per group) (SOD1-G93A mice [2]; week 18): 10; Survival time (surviving mice per group) (SOD1-G93A mice [2]; week 19): 8; Survival time (surviving mice per group) (SOD1-G93A mice [2]; week 20): 4; Survival time (surviving mice per group) (SOD1-G93A mice [2]; week 21): 3; Survival time (surviving mice per group) (SOD1-G93A mice [2]; week 22): 1; Survival time (surviving mice per group) (SOD1-G93A mice [2]; week 23): 0; Neurological score (SOD1-G93A mice [3]; week 10, mean): 0; Neurological score (SOD1-G93A mice [3]; week 11, mean): 0; Neurological score (SOD1-G93A mice [3]; week 12, mean): 0; Neurological score (SOD1-G93A mice [3]; week 13, mean): 0; Neurological score (SOD1-G93A mice [3]; week 14, mean): 0; Neurological score (SOD1-G93A mice [3]; week 15, mean): 0.30; Neurological score (SOD1-G93A mice [3]; week 16, mean): 0.75; Neurological score (SOD1-G93A mice [3]; week 17, mean): 1; Neurological score (SOD1-G93A mice [3]; week 18, mean): 1.50; Neurological score (SOD1-G93A mice [3]; week 19, mean): 2.20; Neurological score (SOD1-G93A mice [3]; week 20, mean): 3; Neurological score (SOD1-G93A mice [3]; week 21, mean): 3.70; Neurological score (SOD1-G93A mice [3]; week 22, mean): 4
